Results: US9085605B2, “Chemical synthesis and anti-tumor and anti-metastatic effects of dual functional conjugate” (Shenzhen Salubris Pharmaceuticals Co., Ltd., priority 2010, dated 2015)

Tests used:
[1] = tested on: human breast cancer line MDA-MB-231; assay: Tumor growth inhibition in nude mice xenograft model, MDA-MB-231
Procedure: • 1. […] Drug administration dose were set as: 10 mg/kg, 15 mg/kg, and 20 mk/kg, drug administration volume was 0.2 mL/20 g. • 2. […] MDA [Peptide (P) 0.54 mg/mL (0.001M), Example 10], a colorless and clear liquid, was prepared by the commission, can be directly used after the repackaging in a sterile condition, stored at 4° C. […] Certificate NO. […] SYSK (BeiJing) 2004-0001. Experiment Methods:
The mice were divided into groups and administrated drug after 11 days.
The mice were divided into eight groups, each group had 6-8 mice. The groups contained Negative control. […] After grouping, all mice were administrated with drug by intraperitoneal injection once a day depends on their body weight.
Other groups were administered with drugs for 24 times successively. The experiment was completed 24 h after the last administration.
The mice were sacrificed, and tumors were isolated and their weight was measured, and the inhibition rate of tumor growth by drugs were calculated. […] Calculation methods and formula were omitted.

[2] = tested on: 10 human tumor cell lines; assay: Antitumor activity screening in 10 human tumor cell lines; format: cell-based
Text: In the invention, the compounds, MTC-301, MTC-302, MTC-303, MTC-304, MTC-305, MTC-306, MTC-307, MDC-308, MDC-403, MDC-404, MDC-405. MDC-406, MDC-407 and MDC-408 were screened their antitumor activity in 10 human tumor cell lines. […] The experimental results refer to FIGS. 13-16.

Row | Compound | 50% growth inhibition (GI50) activity [2] | other results
1 | CC(NC(=O)/C=C/c1ccc(Cl)cc1)C(=O)N[C@@H](CCC(=O)NC(CCCCN)C(N)=O)C(N)=O (stereo partly drawn) [MDA] |  | Tumor growth rate (in words) ([1]; MDA 0.54 mg/mL × 24): slower than the tumor growth rate of the negative control group; RTV ([1]; MDA 0.54 mg/mL × 24, i.p.): 15.06 ± 5.292; T/C ([1]; MDA 0.54 mg/mL × 24, i.p.): 83.5%; TGI ([1]; MDA 0.54 mg/mL × 24, i.p.): 30.3%; Tumor volume Beginning ([1]; MDA 0.54 mg/mL × 24, i.p.): 141 ± 61.1 mm^3; Tumor volume End ([1]; MDA 0.54 mg/mL × 24, i.p.): 1898 ± 775.4 mm^3; Tumor weight ([1]; MDA 0.54 mg/mL × 24, i.p.): 1.98 ± 0.744 g
2 | CC(=O)O[C@@]12CO[C@@H]1C[C@H](O)[C@@]1(C)C(=O)[C@H](O)C3=C(C)[C@@H](OC(=O)[C@H](OC(=O)CCC(=O)NCCCCC(NC(=O)CC[C@H](NC(=O)C(C)NC(=O)/C=C/c4ccc(F)cc4F)C(N)=O)C(N)=O)[C@@H](NC(=O)OC(C)(C)C)c4ccccc4)C[C@@](O)([C@@H](OC(=O)c4ccccc4)[C@H]21)C3(C)C (stereo partly drawn) [MDC-403] | in the same magnitude range as paclitaxel or docetaxel | 
3 | CC(=O)O[C@@]12CO[C@@H]1C[C@H](O)[C@@]1(C)C(=O)[C@H](O)C3=C(C)[C@@H](OC(=O)[C@H](OC(=O)CCC(=O)NCCCCC(NC(=O)CC[C@H](NC(=O)C(C)NC(=O)/C=C/c4ccc(Cl)cc4F)C(N)=O)C(N)=O)[C@@H](NC(=O)OC(C)(C)C)c4ccccc4)C[C@@](O)([C@@H](OC(=O)c4ccccc4)[C@H]21)C3(C)C (stereo partly drawn) [MDC-404] | in the same magnitude range as paclitaxel or docetaxel | 
4 | CC(=O)O[C@@]12CO[C@@H]1C[C@H](O)[C@@]1(C)C(=O)[C@H](O)C3=C(C)[C@@H](OC(=O)[C@H](OC(=O)CCC(=O)NCCCCC(NC(=O)CC[C@H](NC(=O)C(C)NC(=O)/C=C/c4ccc(F)cc4Cl)C(N)=O)C(N)=O)[C@@H](NC(=O)OC(C)(C)C)c4ccccc4)C[C@@](O)([C@@H](OC(=O)c4ccccc4)[C@H]21)C3(C)C (stereo partly drawn) [MDC-405] | in the same magnitude range as paclitaxel or docetaxel | 
5 | CC(=O)O[C@@]12CO[C@@H]1C[C@H](O)[C@@]1(C)C(=O)[C@H](O)C3=C(C)[C@@H](OC(=O)[C@H](OC(=O)CCC(=O)NCCCCC(NC(=O)CC[C@H](NC(=O)C(C)NC(=O)/C=C/c4ccc(F)cc4)C(N)=O)C(N)=O)[C@@H](NC(=O)OC(C)(C)C)c4ccccc4)C[C@@](O)([C@@H](OC(=O)c4ccccc4)[C@H]21)C3(C)C (stereo partly drawn) [MDC-406] | in the same magnitude range as paclitaxel or docetaxel | 
6 | CC(=O)O[C@@]12CO[C@@H]1C[C@H](O)[C@@]1(C)C(=O)[C@H](O)C3=C(C)[C@@H](OC(=O)[C@H](OC(=O)CCC(=O)NCCCCC(NC(=O)CC[C@H](NC(=O)C(C)NC(=O)/C=C/c4cccc(F)c4)C(N)=O)C(N)=O)[C@@H](NC(=O)OC(C)(C)C)c4ccccc4)C[C@@](O)([C@@H](OC(=O)c4ccccc4)[C@H]21)C3(C)C (stereo partly drawn) [MDC-407] | in the same magnitude range as paclitaxel or docetaxel | 
7 | CC(=O)O[C@@]12CO[C@@H]1C[C@H](O)[C@@]1(C)C(=O)[C@H](O)C3=C(C)[C@@H](OC(=O)[C@H](OC(=O)CCC(=O)NCCCCC(NC(=O)CC[C@H](NC(=O)C(C)NC(=O)/C=C/c4ccc(F)c(F)c4)C(N)=O)C(N)=O)[C@@H](NC(=O)OC(C)(C)C)c4ccccc4)C[C@@](O)([C@@H](OC(=O)c4ccccc4)[C@H]21)C3(C)C (stereo partly drawn) [MDC-408] | in the same magnitude range as paclitaxel or docetaxel | 
8 | CC(=O)O[C@H]1C(=O)[C@@]2(C)[C@H]([C@H](OC(=O)c3ccccc3)[C@]3(O)C[C@H](OC(=O)[C@H](OC(=O)CCC(=O)NCCCCC(NC(=O)CC[C@H](NC(=O)C(C)NC(=O)/C=C/c4ccc(O)cc4)C(N)=O)C(N)=O)[C@@H](NC(=O)c4ccccc4)c4ccccc4)C(C)=C1C3(C)C)[C@]1(OC(C)=O)CO[C@@H]1C[C@@H]2O (stereo partly drawn) [MTC-301] | in the same magnitude range as paclitaxel or docetaxel | 
9 | CC(=O)O[C@H]1C(=O)[C@@]2(C)[C@H]([C@H](OC(=O)c3ccccc3)[C@]3(O)C[C@H](OC(=O)[C@H](OC(=O)CCC(=O)NCCCCC(NC(=O)CC[C@H](NC(=O)C(C)NC(=O)/C=C/c4ccc(F)cc4F)C(N)=O)C(N)=O)[C@@H](NC(=O)c4ccccc4)c4ccccc4)C(C)=C1C3(C)C)[C@]1(OC(C)=O)CO[C@@H]1C[C@@H]2O (stereo partly drawn) [MTC-303] | in the same magnitude range as paclitaxel or docetaxel | 
